{
  "source": "ChEMBL document CHEMBL3045785",
  "about": "“Synthesis and anti-inflammatory activity of 1-acetyl/propanoyl-5-aryl-3-(4-morpholinophenyl)-4,5-dihydro-1H-pyrazole derivatives” (2012)",
  "key": {"Rattus norvegicus [1]": {"system": "Rattus norvegicus", "test": "Anti-inflammatory activity in Rattus norvegicus albino (rat) assessed as inhibition of carrageenan-induced paw edema at 10 mg/kg, ip administered 1 hr prior tocarrageenan-challenge measured after 3 hr relative to indomethacin", "format": "functional", "settings": "route intraperitoneal"}, "Rattus norvegicus [2]": {"system": "Rattus norvegicus", "test": "Anti-inflammatory activity in Rattus norvegicus albino (rat) assessed as inhibition of carrageenan-induced paw edema at 10 mg/kg, ip administered 1 hr prior tocarrageenan-challenge measured after 3 hr relative to control", "format": "functional", "settings": "route intraperitoneal"}},
  "data": [
    {"smiles": "CCC(=O)N1N=C(c2ccc(N3CCOCC3)cc2)CC1c1cc(OC)c(OC)c(OC)c1", "note": "(stereo not given)", "values": [
      {"measurement": "inhibition in vivo at 10 mg/kg", "setting": "Rattus norvegicus [1]", "value": 1.84, "unit": "%"},
      {"measurement": "inhibition in vivo at 10 mg/kg", "setting": "Rattus norvegicus [2]", "value": 1.08, "unit": "%"}
    ]},
    {"smiles": "CCC(=O)N1N=C(c2ccc(N3CCOCC3)cc2)CC1c1ccc(OC)c(OC)c1", "note": "(stereo not given)", "values": [
      {"measurement": "inhibition in vivo at 10 mg/kg", "setting": "Rattus norvegicus [1]", "value": 52.8, "unit": "%"},
      {"measurement": "inhibition in vivo at 10 mg/kg", "setting": "Rattus norvegicus [2]", "value": 31.1, "unit": "%"}
    ]},
    {"smiles": "CCC(=O)N1N=C(c2ccc(N3CCOCC3)cc2)CC1c1ccccc1OC", "note": "(stereo not given)", "values": [
      {"measurement": "inhibition in vivo at 10 mg/kg", "setting": "Rattus norvegicus [1]", "value": 10.4, "unit": "%"},
      {"measurement": "inhibition in vivo at 10 mg/kg", "setting": "Rattus norvegicus [2]", "value": 6.14, "unit": "%"}
    ]},
    {"smiles": "CCC(=O)N1N=C(c2ccc(N3CCOCC3)cc2)CC1c1ccc(Br)cc1", "note": "(stereo not given)", "values": [
      {"measurement": "inhibition in vivo at 10 mg/kg", "setting": "Rattus norvegicus [1]", "value": 31.3, "unit": "%"},
      {"measurement": "inhibition in vivo at 10 mg/kg", "setting": "Rattus norvegicus [2]", "value": 18.4, "unit": "%"}
    ]},
    {"smiles": "COc1cc(OC)cc(C2CC(c3ccc(N4CCOCC4)cc3)=NN2C(C)=O)c1", "note": "(stereo not given)", "values": [
      {"measurement": "inhibition in vivo at 10 mg/kg", "setting": "Rattus norvegicus [1]", "value": 22.7, "unit": "%"},
      {"measurement": "inhibition in vivo at 10 mg/kg", "setting": "Rattus norvegicus [2]", "value": 13.4, "unit": "%"}
    ]},
    {"smiles": "CC(=O)N1N=C(c2ccc(N3CCOCC3)cc2)CC1c1ccc(Br)cc1", "note": "(stereo not given)", "values": [
      {"measurement": "inhibition in vivo at 10 mg/kg", "setting": "Rattus norvegicus [1]", "value": 19, "unit": "%"},
      {"measurement": "inhibition in vivo at 10 mg/kg", "setting": "Rattus norvegicus [2]", "value": 11.2, "unit": "%"}
    ]},
    {"smiles": "CCC(=O)N1N=C(c2ccc(N3CCOCC3)cc2)CC1c1cc(OC)cc(OC)c1", "note": "(stereo not given)", "values": [
      {"measurement": "inhibition in vivo at 10 mg/kg", "setting": "Rattus norvegicus [1]", "value": 27, "unit": "%"},
      {"measurement": "inhibition in vivo at 10 mg/kg", "setting": "Rattus norvegicus [2]", "value": 15.9, "unit": "%"}
    ]},
    {"smiles": "COc1ccc2c(c1)c(CC(=O)O)c(C)n2C(=O)c1ccc(Cl)cc1", "note": "[INDOMETHACIN]", "values": [
      {"measurement": "inhibition in vivo at 10 mg/kg", "setting": "Rattus norvegicus [2]", "value": 58.8, "unit": "%"}
    ]},
    {"smiles": "CCC(=O)N1N=C(c2ccc(N3CCOCC3)cc2)CC1c1cccs1", "note": "(stereo not given)", "values": [
      {"measurement": "inhibition in vivo at 10 mg/kg", "setting": "Rattus norvegicus [1]", "value": 1.84, "unit": "%"},
      {"measurement": "inhibition in vivo at 10 mg/kg", "setting": "Rattus norvegicus [2]", "value": 1.08, "unit": "%"}
    ]},
    {"smiles": "COc1ccccc1C1CC(c2ccc(N3CCOCC3)cc2)=NN1C(C)=O", "note": "(stereo not given)", "values": [
      {"measurement": "inhibition in vivo at 10 mg/kg", "setting": "Rattus norvegicus [1]", "value": 52.8, "unit": "%"},
      {"measurement": "inhibition in vivo at 10 mg/kg", "setting": "Rattus norvegicus [2]", "value": 31.1, "unit": "%"}
    ]},
    {"smiles": "COc1cc(C2CC(c3ccc(N4CCOCC4)cc3)=NN2C(C)=O)cc(OC)c1OC", "note": "(stereo not given)", "values": [
      {"measurement": "inhibition in vivo at 10 mg/kg", "setting": "Rattus norvegicus [1]", "value": 6.13, "unit": "%"},
      {"measurement": "inhibition in vivo at 10 mg/kg", "setting": "Rattus norvegicus [2]", "value": 3.61, "unit": "%"}
    ]},
    {"smiles": "COc1ccc(C2CC(c3ccc(N4CCOCC4)cc3)=NN2C(C)=O)cc1OC", "note": "(stereo not given)", "values": [
      {"measurement": "inhibition in vivo at 10 mg/kg", "setting": "Rattus norvegicus [1]", "value": 9.82, "unit": "%"},
      {"measurement": "inhibition in vivo at 10 mg/kg", "setting": "Rattus norvegicus [2]", "value": 5.78, "unit": "%"}
    ]},
    {"smiles": "CC(=O)N1N=C(c2ccc(N3CCOCC3)cc2)CC1c1cccs1", "note": "(stereo not given)", "values": [
      {"measurement": "inhibition in vivo at 10 mg/kg", "setting": "Rattus norvegicus [1]", "value": 11.7, "unit": "%"},
      {"measurement": "inhibition in vivo at 10 mg/kg", "setting": "Rattus norvegicus [2]", "value": 6.86, "unit": "%"}
    ]}
  ]
}
